Results: patent US20200131142A1, “FARNESOID X RECEPTOR AGONISTS AND USES THEREOF” (Metacrine, Inc., priority 2017, published 2020)

Target: T1, hFXR (Homo sapiens, UniProt Q96RI1)
T1 construct: expressed in transfected cells; host or cells: CV-1 cells
T1 sequence (Q96RI1 1-486): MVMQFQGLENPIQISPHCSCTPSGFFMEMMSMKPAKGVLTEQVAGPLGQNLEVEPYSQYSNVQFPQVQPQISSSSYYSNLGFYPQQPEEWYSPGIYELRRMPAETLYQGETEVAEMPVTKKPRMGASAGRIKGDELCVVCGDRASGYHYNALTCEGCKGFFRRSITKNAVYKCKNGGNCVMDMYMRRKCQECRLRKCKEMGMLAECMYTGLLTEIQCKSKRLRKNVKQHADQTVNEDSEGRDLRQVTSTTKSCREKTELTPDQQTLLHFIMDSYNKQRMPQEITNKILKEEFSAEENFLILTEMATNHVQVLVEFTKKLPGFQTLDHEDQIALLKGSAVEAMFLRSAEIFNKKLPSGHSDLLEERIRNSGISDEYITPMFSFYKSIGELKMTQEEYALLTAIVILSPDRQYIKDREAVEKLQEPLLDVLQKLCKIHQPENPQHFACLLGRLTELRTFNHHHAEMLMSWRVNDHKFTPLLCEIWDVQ
T1 sequence (P19793 1-462 partner): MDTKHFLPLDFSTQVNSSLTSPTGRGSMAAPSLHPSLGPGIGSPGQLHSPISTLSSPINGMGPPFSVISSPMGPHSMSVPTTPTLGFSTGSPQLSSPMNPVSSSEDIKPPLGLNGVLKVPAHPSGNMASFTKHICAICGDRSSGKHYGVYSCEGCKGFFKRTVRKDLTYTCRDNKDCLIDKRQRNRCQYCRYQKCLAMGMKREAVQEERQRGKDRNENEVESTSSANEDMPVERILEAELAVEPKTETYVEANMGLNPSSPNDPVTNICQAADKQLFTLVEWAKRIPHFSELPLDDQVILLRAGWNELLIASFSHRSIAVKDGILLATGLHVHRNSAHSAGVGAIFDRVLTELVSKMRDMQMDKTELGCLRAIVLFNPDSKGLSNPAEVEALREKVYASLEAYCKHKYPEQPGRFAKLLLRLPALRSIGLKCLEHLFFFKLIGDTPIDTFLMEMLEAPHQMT
Assay: In Vitro FXR Assay (TK): hFXR/hRXR TK-ECRE-luc reporter in transfected CV-1 cells
Format: cell-based
Conditions: 18 hrs incubation, luminescence, compounds with maximum efficacy <25% of the Fexarmine control classified as '+'
Method: Example B-1: In Vitro FXR Assay (TK)
CV-1 cells were seeded at a density of 2,000,000 cells in a T175 flask with DMEM+10% charcoal double-stripped FBS and incubated at 37° C. in 5% CO2 for 18 h (O/N).
After 18 h of incubation, the medium in the T175 flask was changed with fresh DMEM+10% charcoal super-stripped serum. In a polypropylene tube, 2500 μL OptiMEM (Life Technologies, Cat #31985-062) was combined with expression plasmids for hFXR, hRXR, TK-ECRE-luc and pCMX-YFP. The tube was then briefly vortexed and incubated at room temperature for 5 minutes. Transfection reagent (X-tremeGENE HP from Roche, Cat #06 366 236 001) was added to the OptiMEM/plasmid mixture vortexed and incubated at room temperature for 20 minutes. Following incubation, the transfection reagent/DNA mixture complex was added to cells in the T175 flask and the cells were incubated at 37° C. in 5% CO2 for 18 h (O/N).
Compounds were serially diluted in DMSO and added to transfected CV-1 cells. The cells were then incubated for 18 hrs. The next day cells were lysed and examined for luminescence.

Row | EC50 [nM] | SMILES
1 | ≥ 1000 | COc1ccc([C@H]2CC[C@H](CN(c3cccc(-c4cnc(C(=O)O)s4)c3)C(=O)[C@H]3CC[C@H](O)CC3)CC2)cc1C [Compound 7.28, 5-(3-(trans-4-Hydroxy-N-((trans-4-(4-methoxy-3-methylphenyl)cyclohexyl)methyl)cyclohexanecarboxamido)phenyl)thiazole-2-carboxylic acid]
2 | ≤ 250 | COc1ccc([C@H]2CC[C@H](CN(c3cccc(C#Cc4cscn4)c3)C(=O)[C@H]3CC[C@H](O)CC3)CC2)cc1C [Compound 8, trans-4-Hydroxy-N-((trans-4-(4-methoxy-3-methylphenyl)cyclohexyl)methyl)-N-(3-(thiazol-4-ylethynyl)phenyl)cyclohexanecarboxamide]
3 | ≤ 250 | COc1ccc([C@H]2CC[C@H](CN(c3cccc(C#Cc4cncs4)c3)C(=O)[C@H]3CC[C@H](O)CC3)CC2)cc1C [Compound 8.01, trans-4-Hydroxy-N-((trans-4-(4-methoxy-3-methylphenyl)cyclohexyl)methyl)-N-(3-(thiazol-5-ylethynyl)phenyl)cyclohexanecarboxamide]
4 | ≤ 250 | COc1ccc([C@H]2CC[C@H](CN(c3cccc(C#Cc4ncc(C)s4)c3)C(=O)[C@H]3CC[C@H](O)CC3)CC2)cc1C [Compound 8.02, trans-4-Hydroxy-N-((trans-4-(4-methoxy-3-methylphenyl)cyclohexyl)methyl)-N-(3-((5-methylthiazol-2-yl)ethynyl)phenyl)cyclohexanecarboxamide]
5 | ≤ 250 | COc1ccc([C@H]2CC[C@H](CN(c3cccc(C#Cc4nc(C)cs4)c3)C(=O)[C@H]3CC[C@H](O)CC3)CC2)cc1C [Compound 8.03, trans-4-Hydroxy-N-((trans-4-(4-methoxy-3-methylphenyl)cyclohexyl)methyl)-N-(3-((4-methylthiazol-2-yl)ethynyl)phenyl)cyclohexanecarboxamide]
6 | ≤ 250 | COc1ccc([C@H]2CC[C@H](CN(c3cccc(-c4cnc(OC(F)F)s4)c3)C(=O)[C@H]3CC[C@H](O)CC3)CC2)cc1C [Compound 9.01, trans-N-(3-(2-(Difluoromethoxy)thiazol-5-yl)phenyl)-4-hydroxy-N-((trans-4-(4-methoxy-3-methylphenyl)cyclohexyl)methyl) cyclohexanecarboxamide]
7 | ≤ 250 | C#Cc1cc([C@H]2CC[C@H](CN(c3cccc(-c4cnc(OC)s4)c3)C(=O)[C@H]3CC[C@H](O)CC3)CC2)ccc1OC [Compound 9.05, trans-N-((trans-4-(3-Ethynyl-4-methoxyphenyl)cyclohexyl)methyl)-4-hydroxy-N-(3-(2-methoxythiazol-5-yl)phenyl)cyclohexanecarboxamide]
8 | ≤ 250 | COc1ncc(-c2cccc(N(C[C@H]3CC[C@H](c4ccc(OC)c(C#N)c4)CC3)C(=O)[C@H]3CC[C@H](O)CC3)c2)s1 [Compound 9.06, trans-N-((trans-4-(3-Cyano-4-methoxyphenyl)cyclohexyl)methyl)-4-hydroxy-N-(3-(2-methoxythiazol-5-yl)phenyl)cyclohexanecarboxamide]

Further lines, the compound ahead of its results:

Row | SMILES | EC50 [nM]
9 | COc1ccc([C@H]2CC[C@H](CN(c3cccc(-c4cnc(C5CC5)s4)c3)C(=O)[C@H]3CC[C@H](O)CC3)CC2)cc1C#N [Compound 7.29, trans-N-((trans-4-(3-Cyano-4-methoxyphenyl)cyclohexyl)methyl)-N-(3-(2-cyclopropylthiazol-5-yl)phenyl)-4-hydroxycyclohexanecarboxamide] | ≤ 250
10 | COc1ccc(C23CCC(CN(c4cccc(C#Cc5nccs5)c4)C(=O)[C@H]4CC[C@H](O)CC4)(CC2)CC3)cc1C [Compound 8.04, trans-4-Hydroxy-N-((4-(4-methoxy-3-methylphenyl)bicyclo[2.2.2]octan-1-yl)methyl)-N-(3-(thiazol-2-ylethynyl)phenyl)cyclohexanecarboxamide] | ≤ 250
11 | Cn1nc(F)c2cc([C@H]3CC[C@H](CN(c4cccc(-c5cnc(C6CC6)s5)c4)C(=O)[C@H]4CC[C@H](O)CC4)CC3)ccc21 [Compound 9, trans-N-(3-(2-Cyclopropylthiazol-5-yl)phenyl)-N-((trans-4-(3-fluoro-1-methyl-1H-indazol-5-yl)cyclohexyl)methyl)-4-hydroxycyclohexanecarboxamide] | ≤ 250
12 | COc1ncc(-c2cccc(N(C[C@H]3CC[C@H](c4ccc(OC)c(C)n4)CC3)C(=O)[C@H]3CC[C@H](O)CC3)c2)s1 [Compound 9.02, trans-4-Hydroxy-N-((trans-4-(5-methoxy-6-methylpyridin-2-yl)cyclohexyl)methyl)-N-(3-(2-methoxythiazol-5-yl)phenyl)cyclohexanecarboxamide] | ≤ 250
13 | COc1ccc([C@H]2CC[C@H](CN(c3cccc(-c4cnc(C5CC5)s4)c3)C(=O)[C@H]3CC[C@H](O)CC3)CC2)cc1Cl [Compound 9.03, trans-N-((trans-4-(3-Chloro-4-methoxyphenyl)cyclohexyl)methyl)-N-(3-(2-cyclopropylthiazol-5-yl)phenyl)-4-hydroxycyclohexanecarboxamide] | ≤ 250
14 | COc1ncc(-c2cccc(N(C[C@H]3CC[C@H](c4cnc(OC)c(Cl)c4)CC3)C(=O)[C@H]3CC[C@H](O)CC3)c2)s1 [Compound 9.04, trans-N-((trans-4-(5-Chloro-6-methoxypyridin-3-yl)cyclohexyl)methyl)-4-hydroxy-N-(3-(2-methoxythiazol-5-yl)phenyl)cyclohexanecarboxamide] | ≤ 250
15 | CN(C)c1ccc([C@H]2CC[C@H](CN(c3cccc(-c4cnc(C5CC5)s4)c3)C(=O)[C@H]3CC[C@H](O)CC3)CC2)cn1 [Compound 9.07, trans-N-(3-(2-Cyclopropylthiazol-5-yl)phenyl)-N-((trans-4-(6-(dimethylamino)pyridin-3-yl)cyclohexyl)methyl)-4-hydroxycyclohexanecarboxamide] | ≤ 250
16 | COc1ncc(-c2cccc(N(C[C@H]3CC[C@H](c4ccc(N(C)C)nc4)CC3)C(=O)[C@H]3CC[C@H](O)CC3)c2)s1 [Compound 9.08, trans-N-((trans-4-(6-(Dimethylamino)pyridin-3-yl)cyclohexyl)mtehyl)-4-hydroxy-N-(3-(2-methoxythiazol-5-yl)phenyl)cyclohexanecarboxamide] | ≤ 250
17 | COc1ncc(-c2cccc(N(C[C@H]3CC[C@H](c4ccc5scnc5c4)CC3)C(=O)[C@H]3CC[C@H](O)CC3)c2)s1 [Compound 9.09, trans-N-((trans-4-(Benzo[d]thiazol-5-yl)cyclohexyl)methyl)-4-hydroxy-N-(3-(2-methoxythiazol-5-yl)phenyl)cyclohexanecarboxamide] | ≤ 250
18 | COc1ncc(-c2cccc(N(C[C@H]3CC[C@H](c4ccc5c(c4)c(F)nn5C)CC3)C(=O)[C@H]3CC[C@H](O)CC3)c2)s1 [Compound 9.10, trans-N-((trans-4-(3-Fluoro-1-methyl-1H-indazol-5-yl)cyclohexyl)methyl)-4-hydroxy-N-(3-(2-methoxythiazol-5-yl)phenyl)cyclohexanecarboxamide] | ≤ 250
19 | COc1ncc(-c2cccc(N(C[C@@H]3CC[C@@H](c4ccc(OC)c(C)c4)CC3C)C(=O)[C@H]3CC[C@H](O)CC3)c2)s1 (stereo partly drawn) [Compound 9.11, trans-4-Hydroxy-N-((trans-4-(4-methoxy-3-methylphenyl)-2-methylcyclohexyl)methyl)-N-(3-(2-methoxythiazol-5-yl)phenyl)cyclohexanecarboxamide] | ≤ 250
